Literature values in US8454566B2, “Methods and compositions for the inhibition of biofilms on medical devices” (Medtronic MiniMed, Inc., priority 2003, dated 2013).

Target: avidin (Gallus gallus, UniProt P02701)
Conditions: avidin tetramer binds 4 biotin molecules in solution, noncovalent interaction

avidin, sequence (P02701 25-152): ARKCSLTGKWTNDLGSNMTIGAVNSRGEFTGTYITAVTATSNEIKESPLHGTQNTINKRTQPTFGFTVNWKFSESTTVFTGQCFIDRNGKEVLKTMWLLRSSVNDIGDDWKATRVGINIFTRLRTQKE

For `O=C(O)CCCC[C@@H]1SC[C@@H]2NC(=O)N[C@@H]21` [biotin], the binding constant is listed as “about 10^15 M^−1”.
